The supplement of paper PMC10331698
± gives the standard deviation of the averaged measurements.

What was measured:
Test in all cases: level (log10 ratio to DMSO vehicle control); higher = higher biomarker level / cell amount than vehicle control
Perfluoroundecanoic acid = compound: O=C(O)C(F)(F)C(F)(F)C(F)(F)C(F)(F)C(F)(F)C(F)(F)C(F)(F)C(F)(F)C(F)(F)C(F)(F)F [Perfluoroundecanoic acid] (in DMSO); details: 6700 nM
Description: (§1)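 BioMAP Diversity Plus panel of 12 human primary cell co-culture systems (3C, 4H, LPS, SAg, BT, BF4T, BE3C, CASM3C, HDF3CGF, KF3CT, MyoF, Mphg). Compounds were added 1 h before stimulation and left for 24 h (MyoF 48 h; BT 72 h for soluble read-outs or 6 d for IgG). Biomarkers were read by ELISA, cytotoxicity by SRB, PBMC viability and proliferation by Alamar Blue. Each well value was divided by the mean of 8 DMSO control wells on the same plate and log10 transformed; duplicate blinded samples were tested at 4 concentrations.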

[1] = compound: CO[Si](C)(CCC(F)(F)C(F)(F)C(F)(F)C(F)(F)C(F)(F)C(F)(F)F)OC [Dimethoxymethyl((perfluorohexyl)ethyl)silane] (in DMSO)
Description: as §1

[2] = compound: O=S(=O)(O)CCC(F)(F)C(F)(F)C(F)(F)C(F)(F)C(F)(F)C(F)(F)C(F)(F)C(F)(F)F [8:2 Fluorotelomer sulfonic acid] (in DMSO)
Description: as §1

[3] = compound: NS(=O)(=O)C(F)(F)C(F)(F)C(F)(F)C(F)(F)C(F)(F)C(F)(F)C(F)(F)C(F)(F)F [Perfluorooctanesulfonamide] (in DMSO)
Description: as §1

[4] = compound: O=C(O)C(F)(F)C(F)(F)C(F)(F)OC(F)(F)F [Perfluoro(4-methoxybutanoic) acid] (in DMSO)
Description: as §1

[5] = compound: O=S(=O)(O)C(F)(F)C(F)(F)C(F)(F)C(F)(F)C(F)(F)C(F)(F)C(F)(F)F [Perfluoroheptanesulfonic acid] (in DMSO)
Description: as §1

[6] = compound: O=C(O)C=C(C(F)(F)F)C(F)(F)F [3,3-Bis(trifluoromethyl)-2-propenoic acid] (in DMSO)
Description: as §1

| Test System | level (log10) (Perfluoroundecanoic acid) | level (log10) ([1]; 6700 nM) | level (log10) ([1]; 20000 nM) | level (log10) ([2]; 6700 nM) | level (log10) ([2]; 20000 nM) | level (log10) ([2]; 60000 nM) | level (log10) ([3]; 6700 nM) | level (log10) ([3]; 20000 nM) | level (log10) ([4]; 6700 nM) | level (log10) ([4]; 20000 nM) | level (log10) ([4]; 60000 nM) | level (log10) ([5]; 1500 nM) | level (log10) ([5]; 4400 nM) | level (log10) ([5]; 13000 nM) | level (log10) ([5]; 40000 nM) | level (log10) ([6]; 6700 nM) | level (log10) ([6]; 20000 nM) | level (log10) ([6]; 60000 nM) |
| --- | --- | --- | --- | --- | --- | --- | --- | --- | --- | --- | --- | --- | --- | --- | --- | --- | --- | --- |
| CASM3C:LDLR | -0.0265 ± 0.016 | -0.0135 ± 0.00071 | 0.0165 ± 0.029 | -0.0005 ± 0.0064 | 0.0135 ± 0.013 | 0.0415 ± 0.026 | -0.0095 ± 0.011 | -0.0165 ± 0.0078 | -0.0135 ± 0.011 | -0.0245 ± 0.023 | 0.0035 ± 0.044 | -0.0275 ± 0.0021 | -0.0135 ± 0.00071 | -0.0215 ± 0.0092 | -0.0165 ± 0.011 | -0.008 ± 0.011 | -0.0175 ± 0.0064 | -0.022 ± 0.016 |
| MyoF:MMP-1 | -0.036 ± 0.018 | -0.001 ± 0.011 | -0.012 ± 0.017 | -0.0245 ± 0.043 | -0.0365 ± 0.028 | 0.0175 ± 0.005 | -0.038 ± 0.013 | 0.0955 ± 0.04 | -0.0165 ± 0.0078 | -0.0245 ± 0.026 | 0.0205 ± 0.06 | 0.0105 ± 0.039 | -0.0055 ± 0.015 | -0.03 ± 0.0085 | 0.01 ± 0.044 | -0.0075 ± 0.0092 | -0.0445 ± 0.0078 | -0.0085 ± 0.093 |
| BE3C:Keratin 8/18 | -0.045 ± 0.023 | 0.0155 ± 0.011 | 0.0075 ± 0.005 | 0.007 ± 0.0042 | 0.017 ± 0.0085 | 0.043 ± 0.014 | -0.0475 ± 0.013 | -0.0185 ± 0.0021 | -0.013 ± 0.0057 | -0.002 ± 0.0071 | -0.004 ± 0.011 | -0.013 ± 0.035 | -0.0065 ± 0.037 | -0.015 ± 0.033 | -0.0185 ± 0.033 | -0.001 ± 0.0014 | -0.0025 ± 0.005 | 0.014 ± 0.031 |
| lMphg:CXCL8/IL-8 | 0.01 ± 0.013 | -0.0095 ± 0.029 | 0.0025 ± 0.015 | 0.001 ± 0.0085 | 0.022 ± 0.013 | 0.0775 ± 0.0035 | 0.004 ± 0.0042 | 0.124 ± 0.019 | 0.001 ± 0.04 | 0.005 ± 0.011 | 0.083 ± 0.037 | -0.001 ± 0.038 | -0.0165 ± 0.0078 | -0.018 ± 0.023 | 0.074 ± 0.069 | 0.081 ± 0.016 | 0.123 ± 0.014 | 0.201 ± 0.047 |
| MyoF:PAI-I | -0.01 ± 0.018 | 0.0075 ± 0.0092 | 0.008 ± 0.0014 | -0.008 ± 0.011 | -0.009 ± 0.0042 | 0.0185 ± 0.019 | 0.0135 ± 0.019 | 0.006 ± 0.0071 | -0.003 ± 0.0042 | -0.0045 ± 0.0064 | 0.0005 ± 0.00071 | 0.008 ± 0.0085 | 0.0085 ± 0.00071 | 0.005 ± 0.0028 | 0.019 ± 0.023 | -0.005 ± 0.0042 | 0.0045 ± 0.0064 | 0.005 ± 0.02 |
| lMphg:M-CSF | 0.016 ± 0.02 | -0.0075 ± 0.036 | 0.0135 ± 0.025 | -0.0075 ± 0.033 | -0.014 ± 0.013 | 0.012 | -0.0445 ± 0.0092 | -0.029 ± 0.021 | -0.0095 ± 0.0078 | -0.019 ± 0.011 | -0.0115 ± 0.0064 | -0.0065 ± 0.023 | -0.01 ± 0.037 | -0.0285 ± 0.039 | -0.0285 ± 0.0035 | -0.033 ± 0.0071 | -0.021 ± 0.021 | -0.0325 ± 0.022 |
| BE3C:PAI-I | -0.292 ± 0.023 | 0.009 ± 0.033 | -0.0245 ± 0.023 | 0.044 ± 0.014 | 0.126 ± 0.026 | 0.0955 ± 0.011 | -0.194 ± 0.03 | -0.202 ± 0.016 | -0.005 ± 0.0085 | -0.001 ± 0.025 | -0.0005 ± 0.0021 | 0.016 ± 0.044 | 0.047 ± 0.057 | 0.0385 ± 0.06 | 0.033 ± 0.078 | -0.043 ± 0.0042 | -0.0315 ± 0.005 | -0.0085 ± 0.032 |
| MyoF:TIMP-1 | -0.117 ± 0.055 | -0.0175 ± 0.0035 | -0.0295 ± 0.018 | -0.0185 ± 0.0035 | 0.0095 ± 0.021 | -0.008 ± 0.018 | -0.007 ± 0.027 | -0.098 ± 0.018 | -0.0155 ± 0.057 | -0.0185 ± 0.074 | -0.0135 ± 0.071 | 0.021 ± 0.04 | 0.013 ± 0.061 | 0.033 ± 0.054 | 0.11 ± 0.0099 | -0.0545 ± 0.025 | -0.023 ± 0.023 | -0.0085 ± 0.077 |
